Values joined by “and” are separate entries in the source; they are usually repeats but may differ in a detail not shown here. Equal entries are not always repeated.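 48-hour exposure; five concentrations; linearly interpolated endpoints. Here, GI50 denotes the concentration required for 50% inhibition of growth. The concentration for full growth arrest is given as TGI.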
Legend:
Experiment in all cases: growth of human tumour cells (NCI), 48 h
[1] = tested on: NCI-H226 lung
[2] = tested on: HOP-62 NSCLC
[3] = tested on: MOLT-4 leukemia
[4] = tested on: KM12 colon
[5] = tested on: NCI-H23 lung
[6] = tested on: TK-10 renal
[7] = tested on: SNB-19 CNS
[8] = tested on: SK-MEL-5 melanoma
[9] = tested on: BT-549 breast
[10] = tested on: ACHN renal
[11] = tested on: LOX IMVI melanoma
[12] = tested on: IGROV1 ovarian

SMILES	TGI [1]	TGI [2]	TGI [3]	TGI [4]	TGI [5]	TGI [6]	TGI [7]	TGI [8]	TGI [9]	TGI [10]	TGI [11]	TGI [12]	GI50 [11]	GI50 [4]
COc1cc(C(=O)N(C(=S)OC23CC4CC(CC(C4)C2)C3)c2ccccc2)cc(OC)c1OC	> 100 µM	> 100 µM	21.8 µM	> 100 µM	> 100 µM	> 100 µM	> 100 µM	32.9 µM	> 100 µM	> 100 µM				
COc1ccc(S(=O)(=O)Nc2ccc(-c3csc(N4C(=O)/C(=C/c5cccs5)N=C4c4ccccc4)n3)cc2)cc1Cl	> 100 µM	45.8 µM	> 100 µM	> 100 µM	59.6 µM	> 100 µM	> 100 µM	> 100 µM		> 100 µM	> 100 µM	> 100 µM		
O=C1CSC(c2cccc(Oc3ccccc3)c2)N1c1cccc(Cl)c1Cl (stereo unspecified)	> 100 µM	> 100 µM	55.7 µM	> 100 µM	91.4 µM	> 100 µM	> 100 µM	50 µM	50.4 µM	47.9 µM	34.3 µM			
CCSc1nc(C)nc2c1sc1nc3ccccc3n12	> 100 µM		> 100 µM	> 100 µM	> 100 µM	> 100 µM	> 100 µM	> 100 µM	> 100 µM	> 100 µM	> 100 µM	> 100 µM		
CCCCN1CCC(O)(c2cc(C(=O)O)[nH]c2-c2cc(C)no2)C1=O (stereo unspecified)		> 100 µM	> 100 µM	> 100 µM	> 100 µM	> 100 µM	> 100 µM	> 100 µM	> 100 µM	> 100 µM		> 100 µM		
COc1cc(OC)cc(C(=O)Cc2c(C(=O)c3ccccc3)c3ccccc3n2C(=O)c2ccccc2)c1	> 100 µM	> 100 µM	> 100 µM	> 100 µM	> 100 µM	98.3 µM	69 µM	35.1 µM		> 100 µM	> 100 µM	> 100 µM		
CC1=CC(=O)/C(=C/N2C(=O)CNC2=S)C(=O)O1	> 100 µM	> 100 µM	> 100 µM	> 100 µM	> 100 µM	> 100 µM	> 100 µM	> 100 µM		> 100 µM	> 100 µM	> 100 µM		
COC1C(OC(C)=O)CC(=O)OC(C)C/C=C/C=C\C(O)C(C)CC(CC=O)C1OC1OC(C)C(OC2CC(C)(O)C(OC(=O)CC(C)C)C(C)O2)C(N(C)C)C1O (stereo unspecified)	> 100 µM	> 100 µM		> 100 µM	> 100 µM	> 100 µM	> 100 µM	> 100 µM	> 100 µM	> 100 µM	> 100 µM	> 100 µM	41.4 µM and > 100 µM	37.9 µM and 85.3 µM
COc1cc(OC2OC(CO)C(O)C(O)C2O)c2c(c1)O[C@@H]1[C@H](O)Oc3cc(OC)c(OC)cc3[C@]1(O)C2=O (stereo partly specified)	> 25 µM	> 25 µM	> 25 µM	> 25 µM	> 25 µM	> 25 µM	> 25 µM	> 25 µM		> 25 µM	> 25 µM	> 25 µM		
CCOC(=O)/C=C(/C(=O)OCC)n1ccc(=O)n(CC(=O)OCC)c1=O	5.31 µM	34.7 µM		7.95 µM	3.77 µM	2.52 µM	25.4 µM	6.21 µM	4.61 µM	1.76 µM	1.81 µM	3.33 µM	0.422 µM	
CO/N=C(\C(=O)[N-][n+]1cnn(CC(=O)O)c1)c1csc(N)n1		> 10 µM	> 10 µM	> 10 µM	> 10 µM	> 10 µM		> 10 µM	> 10 µM	> 10 µM	> 10 µM	> 10 µM		
C/C(=N\Nc1nc2ccccc2o1)c1cc2ccccc2cn1		15.6 µM	> 46.3 µM	7.85 µM	8.3 µM		20.5 µM	22.5 µM	3.23 µM	2.55 µM				
CCOC(=O)c1csc(-c2nc(CCNC(=O)c3ccccc3)sc2Cl)n1	> 100 µM	> 100 µM	> 100 µM	> 100 µM	> 100 µM	> 100 µM	> 100 µM	> 100 µM	> 100 µM	> 100 µM		> 100 µM		
CCOc1cc(/C=C2\N=C(c3ccccc3)N(c3nc4ccccc4s3)C2=O)ccc1O	> 100 µM	> 100 µM	58.9 µM	> 100 µM	77.8 µM	> 100 µM		41.4 µM		> 100 µM	> 100 µM	> 100 µM		
COc1ccc2[nH]c3c(C)c4ncccc4c(C)c3c2c1	> 10 µM	> 10 µM	> 10 µM	3.87 µM	> 10 µM	> 10 µM	> 10 µM	> 10 µM	> 10 µM	> 10 µM		> 10 µM		
O=C1CN(c2ccccc2)C(=O)CN1CCN1CC(=O)N(c2ccccc2)CC1=O		> 100 µM		> 100 µM	> 100 µM	> 100 µM	> 100 µM	> 100 µM	> 100 µM	> 100 µM		> 100 µM		
O=C1/C(=C\c2cccc(Oc3ccccc3)c2)SC(c2ccccc2)N1c1cccc(Cl)c1 (stereo unspecified)	> 100 µM	> 100 µM	> 100 µM	> 100 µM	> 100 µM	> 100 µM	> 100 µM	> 100 µM	> 100 µM	> 100 µM	> 100 µM			
COc1ccc(NS(=O)(=O)c2ccc(N=C3C=C(Nc4ccc(S(=O)(=O)Nc5ccc(OC)nn5)cc4)C(=O)c4ccccc43)cc2)nn1	34.2 µM		> 100 µM	30.5 µM	29.7 µM	40 µM	33.4 µM	35 µM		37.8 µM	30.4 µM	45.7 µM		

Reference: PubChem BioAssay (NCI)
